Reference: patent publication US8597646B2, “Methods and compositons featuring TGF-beta antagonists for the treatment of marfan syndrome and associated disorders” (The Johns Hopkins University, priority 2005, dated 2013)
Entries after “also recorded” stand apart in the source; their conditions may differ.

Legend:
Type in all cases: in vivo, mouse
Fbn1C1039G/+ mice [1] = assay: Postnatal treatment with losartan and propranolol, aorta of Fbn1C1039G/+ mice; conditions: for Aortic root growth rate: during 6 months of treatment
Source text: However, before treatment, the aortic diameter in Fbn1C1039G/+ mice was always greater than in untreated wild-type mice (1.59±0.11 mm; P<0.002).
Three independent aortic root measurements were obtained for each mouse every 2 months during the 6 months of treatment. Mice were killed at 8 months of age. […] The aortic root growth rate over this period was less in the wild-type mice than in the placebo-treated Fbn1C1039G/+ mice (P<0.0001, FIG. 21I).

[2] = system: TGFβ signaling cascade (TSP1, pSmad2, periostin); assay: Immunofluorescent analysis of proteins downstream of angiotensin II type 1 receptor in mdx muscle; conditions: monopotassium salt
Procedure: Immunofluorescent studies were performed as previously described (Cohn, R. D. et al. (2002) Cell 110, 639-48). […] The following antibodies were used in this study: goat polyclonal anti-pSmad 2/3, rabbit polyclonal anti c-met and rabbit polyclonal anti-myogenin (all from Santa Cruz Biotechnology Inc.); rabbit polyclonal anti-pSmad2 (#3104, Cell Signal) rat polyclonal anti-lamininyl, rabbit polyclonal anti-dystrophin, rabbit polyclonal antithrombospondin-1 and rabbit polyclonal anti-periostin (all from Abcam); rabbit polyclonal anti-fibrillin-1 (pAb 9543) (Judge, D. P. et al. (2004) J Clin Invest 114, 172-81); goat polyclonal anti-vimentin (Sigma) and, mouse monoclonal anti-beta-sarcoglycan mouse monoclonal anti-developmental myosin (Novocastra). Anti a-dystroglycan antibody IIH6 was generously supplied by Dr. Kevin Campbell, Iowa. Secondary Alexa fluor donkey anti-rabbit, anti-rat, anti mouse IgM and IgG1 and anti-goat conjugated antibodies (Molecular probes) were applied for 1 hour at room temperature. Nuclei were stained with DAPI for 5 minutes, and inverted coverslips were mounted onto glass slides using Cytoseal (Vector Laboratories).
It has recently been shown that thrombospondin-1 (TSP1) acts as a potent mediator of angiotensin II induced TGF-beta activation via AT I R (Zhou Y, et al. (2006) Biochem Biophys Res Commun. 339, 633-641). […] Therefore, the expression of dystrophin, a-dystroglycan and R-sarcoglycan in losartan-treated and untreated mdx mice was investigated.

Fbn1C1039G/+ mice [3] = assay: Prenatal treatment with losartan and propranolol, aorta of Fbn1C1039G/+ mice; conditions: prenatal start
Source text: Treatment of the mothers continued throughout lactation and was maintained in the pups after weaning. Mice were killed at 10 months of age. […] The average aortic wall thickness for untreated wild-type animals was smaller than that in placebo-treated Fbn1C1039G/+ mice (P<0.0001) but was indistinguishable from that in losartan-treated Fbn1C1039G/+ mice (P=0.24, FIG. 20E).

Fbn1C1039G/+ mice [4] = assay: Steady-state skeletal muscle architecture and fiber cross sectional area in Fbn1C1039G/+ mice; conditions: for Steady-state muscle architecture, in words: fibrillin-1 deficient mice, monopotassium salt
Procedure: Wild-type and Fbn1^C1039G/+ mice received intraperitoneal injections of TGFβ-neutralizing antibody (R&D Systems, once every two weeks) starting at 7 weeks of age. The antibody was diluted in PBS (pH 7.4) and administered at a dose of 1 mg/kg or 10 mg/kg body weight. Rabbit IgG (10 mg/kg; Zymed Laboratories Inc.) was administered in a similar fashion as a negative control. Mice were sacrificed after 2 months of treatment and a minimum of 6 mice per genotype were used for histologic and morphometric analyses.
Mice were continued on oral therapy for 6 months and sacrificed. […] Age-matched wild-type and mdx mice (placebo-treated) served as a control group. After 6 months of treatment, forelimb and hindlimb grip strength was assessed using an automated grip strength meter (Columbus Instruments, Columbus, Ohio). The experiments for forelimb and hindlimb grip strength testing were conducted at different days allowing for a minimum recovery period of 10 days. Total peak force (in Newtons) was determined by an electronic strain gauge as previously described and corrected for body weight (Wagner, K. R., et al. (2002) Ann Neurol 52, 832-6). Five measurements within 2 minutes were taken from each animal. […] The degree of fatigue was calculated by comparing the first two pulls to the last two pulls with the decrement between pulls 1+2 and pulls 4+5 providing a measure of fatigue. […]
For morphometric analyses, skeletal muscle was flash frozen in cooled isopentane and mounted in Tragacanth (Sigma Aldrich, USA). […] Muscle fibers were counted in a defined area (9 mm^2) of the tibialis anterior muscle of 10-day-old wild-type (n=3) and Fbn1C1039G/C1039G mice (n=6) and fiber diameter was determined by measuring the shortest fiber axis within cross-sections of the tibialis anterior muscle, counting a total of 850-1500 fibers. The cross sectional area of undamaged and regenerating myofibers of the tibialis anterior muscle from wild-type and Fbn1^C1039G/+ mice was expressed as a distribution of the percentage of the total number of myofibers analyzed (850-1500) (Horsley, V. et al (2003) Cell 113, 483-94). […]

Fbn1C1039G/+ mice [5] = assay: Lung distal airspace caliber (mean linear intercept) in Fbn1C1039G/+ mice treated postnatally with losartan; conditions: for Distal airspace caliber / alveolar septation, in words: postnatal losartan, monopotassium salt
Source text: This abnormality correlated with increased TGF-β signaling and was prevented by prenatal administration of TGF-β NAb.

[6] = 6 months of treatment, monopotassium salt
[7] = 10 months of treatment, monopotassium salt

## CCCCc1nc(Cl)c(CO)n1Cc1ccc(-c2ccccc2-c2nnn[nH]2)cc1.[K] [losartan, 2-butyl-4-chloro-1-[p-(o-1H-tetrazol-5-ylphenyl)benzyl]imidazole-5-methanol monopotassium salt]
Fbn1C1039G/+ mice [1]; [6]
  Aortic wall / elastic fiber architecture: full normalization relative to wild-type mice
  Aortic wall thickness: full normalization relative to wild-type mice; also recorded: indistinguishable from that seen in wild-type mice
Fbn1C1039G/+ mice [1]; listed as Losartan, monopotassium salt
  Aortic root growth rate: normalizes growth rate
Fbn1C1039G/+ mice [1]; monopotassium salt
  Aortic root growth rate: indistinguishable from that in the wild-type group
Fbn1C1039G/+ mice [1]; from 7 weeks of age, 6 months, drinking water, monopotassium salt
  Elastic fiber fragmentation (VVG staining): prevented elastic fiber fragmentation; also recorded: Elastic lamellae are intact
Fbn1C1039G/+ mice [1]; from 7 weeks of age, 6 months, monopotassium salt
  TGF-β signaling in aortic media (nuclear pSmad2): blunted TGF-β signaling; also recorded: Nuclear pSmad2 staining is decreased
Fbn1C1039G/+ mice [1]; versus untreated wild-type littermates
  Absolute diameter of the aortic root at the end of treatment: similar
[2]; mdx diaphragm and other muscles
  Expression of thrombospondin-1 (TSP1): greatly reduced expression of TSP1
[2]; mdx mice
  Dystrophin, a-dystroglycan, sarcoglycan expression / ubiquitin mediated proteolysis: did not have any impact; also recorded: absent
  Nuclear accumulation of pSmad2 and sarcolemmal expression of periostin: did not show any significant nuclear accumulation of pSmad2 or sarcolemmal expression of periostin; also recorded: diminished
Fbn1C1039G/+ mice [3]; 10 months
  Aortic dilatation: indistinguishable from wild-type littermates
Fbn1C1039G/+ mice [3]; [7]
  Aortic wall architecture score: normalized; also recorded: improvement
  Average aortic wall thickness: indistinguishable; also recorded: full normalization of wall thickness
Fbn1C1039G/+ mice [4]; listed as Losartan
  Steady-state muscle architecture, in words: rescued; also recorded: normalized
Fbn1C1039G/+ mice [4]
  Steady-state muscle architecture, in words: fully normalized
Fbn1C1039G/+ mice [4]; steady state, postnatal losartan, untreated 1746±39, wild-type 2741±69
  Mean fiber size (muscle fiber cross sectional area): 2527±58 μm^2
Fbn1C1039G/+ mice [5]; losartan from 7 weeks of age, 6 months, placebo 84.3±15, wild-type 41.3±5
  Mean linear intercept: 53.9±12 μm
Fbn1C1039G/+ mice [5]; listed as Losartan
  Distal airspace caliber / alveolar septation, in words: rescued; also recorded: normalization of the caliber of the distal airspace
Fbn1C1039G/+ mice [5]
  Distal airspace caliber / alveolar septation, in words: reduced
